According to publication PMC6820371, “Terbium-161 for PSMA-targeted radionuclide therapy of prostate cancer” (European Journal of Nuclear Medicine and Molecular Imaging, 2019):

Assays:
PC-3 PIP tumor cells [1] = assay: Cell viability assay (MTT assay); type: cell-based, human; conditions: DTPA complexes, 0.01–20 MBq/mL; marginal reduction at higher concentration
Description: The detailed methods of these studies, including dosimetric calculations, are described in the Supplementary material. The results were analyzed for statistical significance by a two-way ANOVA with Sidak’s multiple comparison post-test using Graph Pad Prism (version 7).
Methods: Tumor cell viability was assessed using a 3-(4,5-dimethylthiazol-2-yl)-2,5-diphenyltetrazolium bromide (MTT) assay as described by Mosmann. PC-3 PIP tumor cells (2500 cells in 200 μL RPMI medium with supplements) were seeded in 96-well plates and incubated overnight (37°C; 5% CO2) to allow adhesion of the tumor cells. The supernatants were removed and the tumor cells were washed once with 200 μL PBS. Afterwards, the tumor cells were incubated in 200 μL RPMI medium (without supplements) containing ^161Tb-PSMA-617 or ^177Lu-PSMA-617 (0.01‒20 MBq/mL), respectively, or just RPMI medium without addition of radioligands. PSMA-negative PC-3 flu tumor cells were also treated with these radioligands under the same experimental conditions using the same concentration range. Additional cell viability assays were performed with PC-3 PIP tumor cells incubated with RPMI medium (without supplements) containing ^161Tb-diethylenetriaminepentaacetic acid (DPTA) or ^177Lu-DTPA (0.01 – 20 MBq/mL). After 4 h incubation (37 °C; 5% CO2), the tumor cells were washed once with 200 μL PBS, followed by the addition of 200 μL of RPMI medium (with supplements) to each well. The tumor cells were left to grow for 6 days under standard cell culture conditions (37 °C, 5% CO2). At Day 6 after treatment, MTT reagent (5 mg/mL in PBS, 30 μL per well) was added to each well to allow the formation of dark-violet formazan crystals within 4 h incubation. The crystals were dissolved by the addition of dimethyl sulfoxide to determine the absorbance at 560 nm using a microplate reader (Victor X3, Perkin Elmer). Cell viability was quantified by expressing the absorbance of the test samples as percentage of the absorbance of control (untreated) cell samples which was set to 100%. Statistical analysis was performed using a two-way ANOVA with Sidak’s multiple comparison post-test in Graph Pad Prism (version 7).

PC-3 PIP tumor cells [2] = assay: Cell survival assay (clonogenic assay); type: cell-based, human; conditions: DTPA complexes, 0.01–10 MBq/mL; marginal reduction at higher concentration
[3] = system: PSMA-positive PC-3 PIP tumor cells; assay: Tumor cell uptake and internalization; type: cell-based, human; conditions: 2–4 h incubation
[4] = system: PSMA-negative PC-3 flu tumor cells; assay: Tumor cell uptake and internalization; type: cell-based; conditions: 2–4 h incubation
[5] = system: mice inoculated with PC-3 PIP cells; assay: Additional therapy study (injection 2 days after tumor cell inoculation); type: in vivo; conditions: for Median Survival: control 26 days
Description: The day of the treatment, two days after tumor cell inoculation, was defined as Day 0 of the study (Table S7).
Endpoint criteria: The mice were monitored until they reached an endpoint (definition of endpoints, see Chapter 13) or over the whole period of 38 days when the study was terminated.
Data analysis of the therapy study: The tumor growth delay indices (TGDI2 and TGDI5) were calculated as reported in the Methods of the main manuscript. The median survival was determined using GraphPad Prism software (version 7).

[6] = set-up: method as in Benešová et al. 2018 [4]; conditions: saline, in the presence of l-ascorbic acid, up to 24 h; ref Benešová et al. 2018 [4]; cited from earlier work
[7] = set-up: method as in Benešová et al. [4]; conditions: PBS pH 7.4; ref Benešová et al. [4]; cited from earlier work
[8] = system: PC-3 PIP tumor-bearing mice; set-up: method as in PMID 29684274; conditions: 5.0 MBq; cited from earlier work

O=C([O-])CN(CCN(CC(=O)[O-])CC(=O)[O-])CCN(CC(=O)[O-])CC(=O)[O-].[161Tb+3] [^161Tb-DPTA, ^161Tb-diethylenetriaminepentaacetic acid, reference compound]
Viability of PC-3 PIP tumor cells (PC-3 PIP tumor cells [1]): not affected | Survival of PC-3 PIP tumor cells (PC-3 PIP tumor cells [2]): not affected

O=C([O-])CN(CCN(CC(=O)[O-])CC(=O)[O-])CCN(CC(=O)[O-])CC(=O)[O-].[177Lu+3] [^177Lu-DTPA, reference compound]
Viability of PC-3 PIP tumor cells (PC-3 PIP tumor cells [1]): not affected | Survival of PC-3 PIP tumor cells (PC-3 PIP tumor cells [2]): not affected

O=C([O-])CN1CCN(CC(=O)[O-])CCN(CC(=O)NCC2CCC(C(=O)N[C@@H](Cc3ccc4ccccc4c3)C(=O)NCCCC[C@H](NC(=O)N[C@@H](CCC(=O)O)C(=O)O)C(=O)O)CC2)CCN(CC(=O)[O-])CC1.[177Lu+3] (stereo partly shown) [^177Lu-PSMA-617, reference compound]
PC-3 PIP tumor cell uptake [3]: 49–58% | Internalized fraction ([3]; PC-3 PIP): 9–12% | Uptake in PC-3 flu tumor cells [4]: < 0.5% | First mouse euthanized ([5]; 2.5 MBq): 20 days | TGDI2 ([5]; 2.5 MBq): 0.8 ± 0.4 | TGDI5 ([5]; 2.5 MBq): 1.0 ± 0.3 | Median Survival ([5]; 2.5 MBq): 27 days | Last mouse euthanized ([5]; 2.5 MBq, study end Day 38): study end | First mouse euthanized ([5]; 5.0 MBq): 24 days | TGDI2 ([5]; 5.0 MBq): 1.0 ± 0.4 | Median Survival ([5]; 5.0 MBq): 30 days | Last mouse euthanized ([5]; 5.0 MBq, study end Day 38): study end | Survival ([5]; 10 MBq): survived until the end of the study at Day 38 | Cases in which tumors started to regrow ([5]; 10 MBq, from about Day 20 on): 50% | First mouse euthanized ([5]; 10 MBq, study end Day 38): Study end | Last mouse euthanized ([5]; 10 MBq, study end Day 38): study end | Stability (intact radioligand) [6]: ≥ 98% | n-octanol/PBS distribution coefficient (logD value) [7]: –4.4 ± 0.1 | Last mouse euthanized [8]: 40 days | Median Survival [8]: 32 days | TGDI2 [8]: 2.1 ± 0.3
